Values of other authors in patent US12414943B2 (ACASTI PHARMA U.S., INC., priority 2022, dated 2025).

What was measured:
[1] = man, oral
[2] = nimodipine-treated SAH patients

- half-life equivalent to earlier elimination rates [1]: 1 to 2 h
- concentration in the cerebrospinal fluid [2]: ≤ 12.5 ng/mL
SMILES: COCCOC(=O)C1=C(C)NC(C)=C(C(=O)OC(C)C)C1c1cccc([N+](=O)[O-])c1 (centres unmarked) [Nimodipine, isopropyl2-methoxyethyl 1,4-dihydro-2,6-dimethyl-4-(m-nitrophenyl)-3,5-pyridinedicarboxylate]
